# From PMC7554340, “A Novel Dual-Targeted α-Helical Peptide With Potent Antifungal Activity Against Fluconazole-Resistant Candida albicans Clinical Isolates” (Frontiers in Microbiology, 2020)
# pIC50: −log10 of the molar value. Where two headings read alike, the source gives them in different places. No end group written: not given here.
# Tests used:
# [1] = system: C. albicans cgmcc 2.2086; test: Antifungal activity assay (broth microdilution, MIC/MFC); type: cell-based, Candida albicans
# [2] = system: C. tropicalis cgmcc 2.1975; test: as above; type: cell-based, Candida tropicalis
# [3] = system: C. parapsilosis cgmcc 2.3989; test: as above; type: cell-based, Candida parapsilosis
# [4] = system: C. albicans cgmcc 2.2086; type: cell-based, Candida albicans
# [5] = system: C. albicans 56452; test: microbe, parasite or virus in culture; settings: Candida albicans, 56452, 48 h
# [6] = system: C. albicans 56214; test: microbe, parasite or virus in culture; settings: Candida albicans, 56214, 48 h
# [7] = system: C. albicans 14936; test: microbe, parasite or virus in culture; settings: Candida albicans, 14936, 48 h
# [8] = system: C. albicans 17546; test: microbe, parasite or virus in culture; settings: Candida albicans, 17546, 48 h
# [9] = system: C. albicans 58288; test: microbe, parasite or virus in culture; settings: Candida albicans, 58288, 48 h
# [10] = system: C. albicans sp3902; test: microbe, parasite or virus in culture; settings: Candida albicans, SP3902, 48 h
# [11] = system: C. albicans sp3903; test: microbe, parasite or virus in culture; settings: Candida albicans, SP3903, 48 h
# [12] = system: C. albicans sp3931; test: microbe, parasite or virus in culture; settings: Candida albicans, SP3931, 48 h
# [13] = system: C. albicans sp3876; test: microbe, parasite or virus in culture; settings: Candida albicans, SP3876, 48 h
# [14] = system: C. albicans 56452; settings: 56452, 48 h; for MIC: pH 7
# [15] = system: C. albicans 56214; settings: 56214, 48 h; for MIC: pH 7
# [16] = system: C. albicans 14936; settings: 14936, 48 h; for MIC: pH 7
# [17] = system: C. albicans 17546; settings: 17546, 48 h; for MIC: pH 7
# [18] = system: C. albicans 58288; settings: 58288, 48 h; for MIC: pH 7
# [19] = system: C. albicans sp3902; settings: sp3902, 48 h; for MIC: pH 7
# [20] = system: C. albicans sp3903; settings: sp3903, 48 h; for MIC: pH 7
# [21] = system: C. albicans sp3931; settings: sp3931, 48 h; for MIC: pH 7
# [22] = system: C. albicans sp3876; settings: sp3876, 48 h; for MIC: pH 7
# [23] = system: Candida strains; settings: 48 h
# [24] = system: IPEC-J2 cells
# [25] = system: PMEC cells
# [26] = system: human erythrocytes; test: Hemolysis assay; settings: minimal hemolytic concentration inducing 10% hemolysis of human erythrocytes; 1 h, 37°C, hemoglobin at 570 nm; probit regression; three independent experiments
# [27] = system: IPEC-J2 and PMEC cells; test: Cytotoxicity MTT assay, statements for both cell lines; settings: 24 h, 1-64 μM
# [28] = system: human erythrocytes; settings: red cells of human, 1 h
# [29] = system: IPEC-J2 and PMEC cells
# [30] = system: C. albicans strains; test: Geometric mean of MIC values against all tested C. albicans; type: cell-based, Candida albicans
# [31] = system: C. albicans cgmcc 2.2086; test: Membrane potential assay, DiSC3(5); type: cell-based, Candida albicans; settings: 0.5 × MIC
# Text: The alteration of membrane potential in peptide-treated C. albicans was detected using the membrane potential-sensitive fluorescent probe, 3,3′-dipropylthiadicarbocyanine iodide [DiSC3(5)] (Sigma-Aldrich, Shanghai, China), as previously described ([Qi et al., 2010]). In brief, C. albicans cells in mid-logarithmic growth-phase were harvested and suspended to an OD600 of 0.05 with 5-mM 4-(2-hydroxyethyl)-1-piperazineethanesulfonic acid buffer (pH 7.4, containing 20-mM glucose). After the addition of 0.4-μM DiSC3(5), samples were incubated for 90 min in the dark to obtain a stable reduction in fluorescence, and then, potassium chloride (4 M) was added to the cell suspension to give a final concentration of 100 mM. Subsequently, 2 ml of cell suspension was added to a 1-cm quartz cuvette and mixed with peptides at different concentrations. The changes in fluorescence were recorded for 900 s with an F-4500 fluorescence spectrophotometer (Hitachi, Japan) at excitation and emission wavelengths of 622 and 670 nm, respectively.
# [32] = 50 μl of MIC wells plated on YPD agar, 28°C, 48 h, lowest concentration that completely killed fungal cells, consensus of at least three independent experiments
compound,measurement,setting,value
"OC(Cn1cncn1)(Cn1cncn1)c1ccc(F)cc1F [FLU, fluconazole]",MFC,"[1]; Candida albicans, CGMCC2, 50 μl of MIC wells plated on YPD agar, 28°C, 48 h, lowest concentration that completely killed fungal cells, consensus of at least three independent experiments",4 µM
same,MIC,"[1]; Candida albicans, CGMCC2, broth microdilution, RPMI-MOPS pH 7.0, 28°C, 48 h, lowest concentration inhibiting 99% of growth (A492)",2 µM
same,MFC,"[2]; Candida tropicalis, CGMCC2, 50 μl of MIC wells plated on YPD agar, 28°C, 48 h, lowest concentration that completely killed fungal cells, consensus of at least three independent experiments",32 µM
same,MIC,"[2]; Candida tropicalis, CGMCC2, broth microdilution, RPMI-MOPS pH 7.0, 28°C, 48 h, lowest concentration inhibiting 99% of growth (A492)",4 µM
same,MFC,"[3]; Lodderomyces parapsilosis, CGMCC2, 50 μl of MIC wells plated on YPD agar, 28°C, 48 h, lowest concentration that completely killed fungal cells, consensus of at least three independent experiments",8 µM
same,MIC,"[3]; Lodderomyces parapsilosis, CGMCC2, broth microdilution, RPMI-MOPS pH 7.0, 28°C, 48 h, lowest concentration inhibiting 99% of growth (A492)",4 µM
same,change of MIC after serial passage,[4],eightfold
same,MFC,[5],> 256 µM
same,MIC,[5]; pH 7,> 256 µM
same,MFC,[6],> 256 µM
same,MIC,[6]; pH 7,> 256 µM
same,MFC,[7],> 256 µM
same,MIC,[7]; pH 7,32 µM
same,MFC,[8],> 256 µM
same,MIC,[8]; pH 7,> 256 µM
same,MFC,[9],> 256 µM
same,MIC,[9]; pH 7,8 µM
same,MFC,[10],> 256 µM
same,MIC,[10]; pH 7,16 µM
same,MFC,[11],64 µM
same,MIC,[11]; pH 7,16 µM
same,MFC,[12],64 µM
same,MIC,[12]; pH 7,1 µM
same,MFC,[13],> 256 µM
same,MIC,[13]; pH 7,> 256 µM
KIGKVLLVKGIKKIGKVL-NH2 [KV3],MFC,"[1]; cgmcc 2.2086, 48 h",32 µM
same,MIC,"[1]; cgmcc 2.2086, 48 h, pH 7",32 µM
same,MFC,"[2]; cgmcc 2.1975, 48 h",16 µM
same,MIC,"[2]; cgmcc 2.1975, 48 h, pH 7",16 µM
same,MFC,"[3]; cgmcc 2.3989, 48 h",32 µM
same,MIC,"[3]; cgmcc 2.3989, 48 h, pH 7",32 µM
same,MFC,[14],64 µM
same,MIC,[14],32 µM
same,MFC,[15],32 µM
same,MIC,[15],32 µM
same,MFC,[16],>64 µM
same,MIC,[16],>64 µM
same,MFC,[17],64 µM
same,MIC,[17],64 µM
same,MFC,[18],64 µM
same,MIC,[18],64 µM
same,MFC,[19],64 µM
same,MIC,[19],64 µM
same,MFC,[20],64 µM
same,MIC,[20],64 µM
same,MFC,[21],64 µM
same,MIC,[21],64 µM
same,MFC,[22],32 µM
same,MIC,[22],16 µM
same,MIC values on Candida strains (range),[23],16 to 64 µM
same,pIC50,"[24]; IPEC-J2 cells, MTT, 24 h treatment, 1-64 μM, probit regression",< 4.19
same,pIC50,"[25]; PMEC cells, MTT, 24 h treatment, 1-64 μM, probit regression",< 4.19
same,HC10,[26],>64 µM
same,cytotoxic effects (in words),[27],negligible cytotoxic effects
KIGKFLLFKGIKKIGKFL-NH2 [KF3],MFC,[1]; [32],32 µM
same,MIC,"[1]; cgmcc 2.2086, 48 h, pH 7",32 µM
same,MFC,[2]; [32],8 µM
same,MIC,"[2]; cgmcc 2.1975, 48 h, pH 7",8 µM
same,MFC,[3]; [32],32 µM
same,MIC,"[3]; cgmcc 2.3989, 48 h, pH 7",32 µM
same,MFC,[14],16 µM
same,MIC,[14],16 µM
same,MFC,[15],16 µM
same,MIC,[15],16 µM
same,MFC,[16],64 µM
same,MIC,[16],64 µM
same,MFC,[17],64 µM
same,MIC,[17],64 µM
same,MFC,[18],32 µM
same,MIC,[18],32 µM
same,MFC,[19],16 µM
same,MIC,[19],16 µM
same,MFC,[20],32 µM
same,MIC,[20],32 µM
same,MFC,[21],32 µM
same,MIC,[21],32 µM
same,MFC,[22],64 µM
same,MIC,[22],64 µM
same,HC10,[28],>64 µM
same,pIC50,[24]; 24 h,4.31
same,pIC50,[25]; 24 h,4.22
same,cytotoxicity at 64 μM (in words),[29],sharp rise in cytotoxicity
"CC[C@H](C)[C@H](NC(=O)CN)C(=O)NCC(=O)N[C@@H](C)C(=O)N[C@H](C(=O)N[C@@H](CC(C)C)C(=O)N[C@@H](CCCCN)C(=O)N[C@H](C(=O)N[C@@H](CC(C)C)C(=O)N[C@H](C(=O)N[C@H](C(=O)NCC(=O)N[C@@H](CC(C)C)C(=O)N1CCC[C@H]1C(=O)N[C@@H](C)C(=O)N[C@@H](CC(C)C)C(=O)N[C@H](C(=O)N[C@@H](CO)C(=O)N[C@@H](Cc1c[nH]c2ccccc12)C(=O)N[C@H](C(=O)N[C@@H](CCCCN)C(=O)N[C@@H](CCCNC(=N)N)C(=O)N[C@@H](CCCCN)C(=O)N[C@@H](CCCNC(=N)N)C(=O)N[C@@H](CCC(N)=O)C(=O)N[C@@H](CCC(N)=O)C(N)=O)[C@@H](C)CC)[C@@H](C)CC)[C@@H](C)O)[C@@H](C)O)C(C)C)C(C)C [Melittin, reference compound]",MFC,"[1]; cgmcc 2.2086, 48 h",8 µM
same,MIC,"[1]; cgmcc 2.2086, 48 h, pH 7",4 µM
same,MFC,"[2]; cgmcc 2.1975, 48 h",8 µM
same,MIC,"[2]; cgmcc 2.1975, 48 h, pH 7",4 µM
same,MFC,"[3]; cgmcc 2.3989, 48 h",2 µM
same,MIC,"[3]; cgmcc 2.3989, 48 h, pH 7",2 µM
same,GM,[30],4.59 µM
same,"cytoplasmic membrane depolarization, melittin against RF3 (in words)",[31],stronger membrane depolarization
same,MFC,[14],8 µM
same,MIC,[14],8 µM
same,MFC,[15],4 µM
same,MIC,[15],4 µM
same,MFC,[16],8 µM
same,MIC,[16],4 µM
same,MFC,[17],8 µM
same,MIC,[17],8 µM
same,MFC,[18],4 µM
same,MIC,[18],4 µM
same,MFC,[19],2 µM
same,MIC,[19],2 µM
same,MFC,[20],4 µM
same,MIC,[20],4 µM
same,MFC,[21],8 µM
same,MIC,[21],8 µM
same,MFC,[22],4 µM
same,MIC,[22],4 µM
